Experimental data as given in PubChem BioAssay AID1963428 (Molecular Pharmacology Branch, DTP, NCI, 2024).
Several values for one entry are separate records, joined by “and”; a condition that tells them apart may be missing. Equal entries are not always repeated. One block for each compound: values may come before it.

Tested on: 171881-019-R-J1-PDC complex spheroid growth, % test/control
Test: Anticancer human tumor 171881-019-R-J1-PDC patient-derived invasive breast carcinoma cell line growth inhibition [Asc]
Settings: for viability, T/C: stronger effect = lower value
Procedure, shortened: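 Complex solid-tumor spheroids incorporating human endothelial and mesenchymal stem cells received single agents or combinations over half-log dilution ranges anchored to clinical Cmax.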

[1] = curve of first compound, second compound 0.01 µM
[2] = curve of first compound, second compound 0.0316 µM
[3] = curve of first compound, second compound 0.1 µM
[4] = curve of first compound, second compound 0.316 µM
[5] = curve of first compound, second compound 1 µM
[6] = second compound 0.01 µM, first compound 0.0316 µM
[7] = second compound 0.01 µM, first compound 0.1 µM
[8] = second compound 0.01 µM, first compound 0.316 µM
[9] = second compound 0.01 µM, first compound 1 µM
[10] = second compound 0.0316 µM, first compound 0.0316 µM
[11] = second compound 0.0316 µM, first compound 0.1 µM
[12] = second compound 0.0316 µM, first compound 0.316 µM
[13] = second compound 0.0316 µM, first compound 1 µM
[14] = second compound 0.1 µM, first compound 0.0316 µM
[15] = second compound 0.1 µM, first compound 0.1 µM
[16] = second compound 0.1 µM, first compound 0.316 µM
[17] = second compound 0.1 µM, first compound 1 µM
[18] = second compound 0.1 µM, first compound 3.16 µM
[19] = second compound 0.1 µM, first compound 10 µM
[20] = second compound 0.316 µM, first compound 0.0316 µM
[21] = second compound 0.316 µM, first compound 0.1 µM
[22] = second compound 0.316 µM, first compound 0.316 µM
[23] = second compound 0.316 µM, first compound 1 µM
[24] = second compound 0.316 µM, first compound 3.16 µM
[25] = second compound 0.316 µM, first compound 10 µM
[26] = second compound 1 µM, first compound 0.0316 µM
[27] = second compound 1 µM, first compound 0.1 µM
[28] = second compound 1 µM, first compound 0.316 µM
[29] = second compound 1 µM, first compound 1 µM
[30] = second compound 1 µM, first compound 3.16 µM
[31] = second compound 1 µM, first compound 10 µM
[32] = curve of first compound, second compound 3.16 µM
[33] = curve of first compound, second compound 10 µM
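For viability, T/C in this document: spheroids exposed to compounds for 7 days.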

Compound: C=C(F)C(=O)N1CCN(c2nc(OCC3CCCN3C)nc3c2CCN(c2cccc4cccc(Cl)c24)C3)CC1CC#N (configuration not stated) + CNC(C)C(=O)NC1CN(S(=O)(=O)c2cccc(S(=O)(=O)N3CCC4CCC(C(=O)NC(c5ccccc5)c5ccccc5)N4C(=O)C(NC(=O)C(C)NC)C3)c2)CCC2CCC(C(=O)NC(c3ccccc3)c3ccccc3)N2C1=O
- IC50 [1]: 5.65 µM
- IC50 [2]: 5.51 µM
- IC50 [3]: 5.69 µM
- IC50 [4]: 5.54 µM
- IC50 [5]: 5.41 µM
- viability, T/C [6]: 93.5%
- viability, T/C [7]: 91.3%
- viability, T/C [8]: 95%
- viability, T/C [9]: 101%
- viability, T/C (second compound 0.01 µM, first compound 3.16 µM): 113%
- viability, T/C (second compound 0.01 µM, first compound 10 µM): 1.9%
- viability, T/C [10]: 90%
- viability, T/C [11]: 88.8%
- viability, T/C [12]: 76.7%
- viability, T/C [13]: 112%
- viability, T/C (second compound 0.0316 µM, first compound 3.16 µM): 112%
- viability, T/C (second compound 0.0316 µM, first compound 10 µM): 0.82%
- viability, T/C [14]: 95.9%
- viability, T/C [15]: 97.2%
- viability, T/C [16]: 100%
- viability, T/C [17]: 104%
- viability, T/C [18]: 107%
- viability, T/C [19]: 1.02%
- viability, T/C [20]: 81.3%
- viability, T/C [21]: 91.1%
- viability, T/C [22]: 86.1%
- viability, T/C [23]: 106%
- viability, T/C [24]: 111%
- viability, T/C [25]: 2.51%
- viability, T/C [26]: 90.3%
- viability, T/C [27]: 84.6%
- viability, T/C [28]: 86.5%
- viability, T/C [29]: 95.5%
- viability, T/C [30]: 106%
- viability, T/C [31]: 1.17%

Compound: C#Cc1c(F)ccc2cc(O)cc(-c3ncc4c(N5CC6CCC(C5)N6)nc(OCC56CCCN5CC(F)C6)nc4c3F)c12 (configuration not stated) + Cc1c(S(C)(=O)=O)c(-c2cc(F)cc(N3CCN(c4ccc(NS(=O)(=O)c5ccc(NC(CCN6CCC(C(=O)OCCCP(=O)(O)O)CC6)CSc6ccccc6)c(S(=O)(=O)C(F)(F)F)c5)cc4)CC3)c2)c(-c2ccc(Cl)cc2)n1C(C)C
- IC50 [3]: > 10 µM
- IC50 [4]: > 10 µM
- IC50 [5]: > 10 µM
- IC50 [32]: 6.86 µM
- IC50 [33]: 4 µM
- viability, T/C [14]: 103%
- viability, T/C [15]: 116%
- viability, T/C [16]: 152%
- viability, T/C [17]: 167%
- viability, T/C [18]: 154%
- viability, T/C [19]: 111%
- viability, T/C [20]: 138%
- viability, T/C [21]: 169%
- viability, T/C [22]: 219%
- viability, T/C [23]: 165%
- viability, T/C [24]: 112%
- viability, T/C [25]: 86%
- viability, T/C [26]: 162%
- viability, T/C [27]: 177%
- viability, T/C [28]: 165%
- viability, T/C [29]: 131%
- viability, T/C [30]: 84.3%
- viability, T/C [31]: 61.1%
- viability, T/C (second compound 3.16 µM, first compound 0.0316 µM): 179%
- viability, T/C (second compound 3.16 µM, first compound 0.1 µM): 179%
- viability, T/C (second compound 3.16 µM, first compound 0.316 µM): 155%
- viability, T/C (second compound 3.16 µM, first compound 1 µM): 97.6%
- viability, T/C (second compound 3.16 µM, first compound 3.16 µM): 63.2%
- viability, T/C (second compound 3.16 µM, first compound 10 µM): 43%
- viability, T/C (second compound 10 µM, first compound 0.0316 µM): 179%
- viability, T/C (second compound 10 µM, first compound 0.1 µM): 186%
- viability, T/C (second compound 10 µM, first compound 0.316 µM): 135%
- viability, T/C (second compound 10 µM, first compound 1 µM): 91.5%
- viability, T/C (second compound 10 µM, first compound 3.16 µM): 58%
- viability, T/C (second compound 10 µM, first compound 10 µM): 33.9%

Compound: C=C(F)C(=O)N1CCN(c2nc(OCC3CCCN3C)nc3c2CCN(c2cccc4cccc(Cl)c24)C3)CC1CC#N (configuration not stated)
- viability, T/C (compound 0.0316 µM): 85.9% and 113% and 104%
- viability, T/C (compound 0.1 µM): 86% and 98.9% and 99.5%
- viability, T/C (compound 0.316 µM): 116% and 99.8% and 93.9%
- viability, T/C (compound 1 µM): 82.4% and 111% and 84.5%
- viability, T/C (compound 3.16 µM): 98.7% and 103% and 95.5%
- viability, T/C (compound 10 µM): 0.42% and 0.28% and 0.66%
- IC50 (curve of compound): 5.43 µM and 5.72 µM and 5.49 µM

The remaining compounds from weak to strong by IC50 [3], led by results:

- IC50 [1]: > 1 µM
- IC50 [2]: 0.747 µM
- IC50 [3]: 0.635 µM
- IC50 [4]: 0.519 µM
- IC50 [5]: 0.408 µM
Compound: O=C(c1ccc(F)c(F)c1Nc1ccc(I)cc1F)N1CC(O)([C@@H]2CCCCN2)C1 + CNC(C)C(=O)NC1CN(S(=O)(=O)c2cccc(S(=O)(=O)N3CCC4CCC(C(=O)NC(c5ccccc5)c5ccccc5)N4C(=O)C(NC(=O)C(C)NC)C3)c2)CCC2CCC(C(=O)NC(c3ccccc3)c3ccccc3)N2C1=O
- viability, T/C (second compound 0.01 µM, first compound 0.00316 µM): 98.1%
- viability, T/C (second compound 0.01 µM, first compound 0.01 µM): 103%
- viability, T/C [6]: 125%
- viability, T/C [7]: 202%
- viability, T/C [8]: 96.9%
- viability, T/C [9]: 44.9%
- viability, T/C (second compound 0.0316 µM, first compound 0.00316 µM): 93.8%
- viability, T/C (second compound 0.0316 µM, first compound 0.01 µM): 98.2%
- viability, T/C [10]: 133%
- viability, T/C [11]: 203%
- viability, T/C [12]: 86.4%
- viability, T/C [13]: 37.6%
- viability, T/C (second compound 0.1 µM, first compound 0.00316 µM): 84.7%
- viability, T/C (second compound 0.1 µM, first compound 0.01 µM): 91.3%
- viability, T/C [14]: 148%
- viability, T/C [15]: 191%
- viability, T/C [16]: 80%
- viability, T/C [17]: 30.5%
- viability, T/C (second compound 0.316 µM, first compound 0.00316 µM): 115%
- viability, T/C (second compound 0.316 µM, first compound 0.01 µM): 111%
- viability, T/C [20]: 145%
- viability, T/C [21]: 179%
- viability, T/C [22]: 68.2%
- viability, T/C [23]: 25.7%
- viability, T/C (second compound 1 µM, first compound 0.00316 µM): 92.5%
- viability, T/C (second compound 1 µM, first compound 0.01 µM): 110%
- viability, T/C [26]: 121%
- viability, T/C [27]: 158%
- viability, T/C [28]: 58.1%
- viability, T/C [29]: 21.4%

- IC50 [3]: 0.0254 µM
- IC50 [4]: 0.0188 µM
- IC50 [5]: 0.0173 µM
- IC50 [32]: 0.0135 µM
- IC50 [33]: 0.00939 µM
Compound: NC(=O)C(=Cn1cnc(-c2cc(C(F)(F)F)cc(C(F)(F)F)c2)n1)c1cncnc1 + Cc1c(S(C)(=O)=O)c(-c2cc(F)cc(N3CCN(c4ccc(NS(=O)(=O)c5ccc(NC(CCN6CCC(C(=O)OCCCP(=O)(O)O)CC6)CSc6ccccc6)c(S(=O)(=O)C(F)(F)F)c5)cc4)CC3)c2)c(-c2ccc(Cl)cc2)n1C(C)C
- viability, T/C (second compound 0.1 µM, first compound 0.000949 µM): 102%
- viability, T/C (second compound 0.1 µM, first compound 0.003 µM): 108%
- viability, T/C (second compound 0.1 µM, first compound 0.00949 µM): 116%
- viability, T/C (second compound 0.1 µM, first compound 0.03 µM): 40.1%
- viability, T/C (second compound 0.1 µM, first compound 0.0949 µM): 4.69%
- viability, T/C (second compound 0.1 µM, first compound 0.3 µM): 1.77%
- viability, T/C (second compound 0.316 µM, first compound 0.000949 µM): 111%
- viability, T/C (second compound 0.316 µM, first compound 0.003 µM): 159%
- viability, T/C (second compound 0.316 µM, first compound 0.00949 µM): 84.5%
- viability, T/C (second compound 0.316 µM, first compound 0.03 µM): 28.7%
- viability, T/C (second compound 0.316 µM, first compound 0.0949 µM): 2.73%
- viability, T/C (second compound 0.316 µM, first compound 0.3 µM): 1.39%
- viability, T/C (second compound 1 µM, first compound 0.000949 µM): 144%
- viability, T/C (second compound 1 µM, first compound 0.003 µM): 135%
- viability, T/C (second compound 1 µM, first compound 0.00949 µM): 86.1%
- viability, T/C (second compound 1 µM, first compound 0.03 µM): 16.6%
- viability, T/C (second compound 1 µM, first compound 0.0949 µM): 2.27%
- viability, T/C (second compound 1 µM, first compound 0.3 µM): 1.86%
- viability, T/C (second compound 3.16 µM, first compound 0.000949 µM): 171%
- viability, T/C (second compound 3.16 µM, first compound 0.003 µM): 151%
- viability, T/C (second compound 3.16 µM, first compound 0.00949 µM): 65.4%
- viability, T/C (second compound 3.16 µM, first compound 0.03 µM): 14.7%
- viability, T/C (second compound 3.16 µM, first compound 0.0949 µM): 1.2%
- viability, T/C (second compound 3.16 µM, first compound 0.3 µM): 0.46%
- viability, T/C (second compound 10 µM, first compound 0.000949 µM): 183%
- viability, T/C (second compound 10 µM, first compound 0.003 µM): 135%
- viability, T/C (second compound 10 µM, first compound 0.00949 µM): 47.7%
- viability, T/C (second compound 10 µM, first compound 0.03 µM): 13.5%
- viability, T/C (second compound 10 µM, first compound 0.0949 µM): 1.03%
- viability, T/C (second compound 10 µM, first compound 0.3 µM): 0.35%
